Reference: patent publication US9468647B2, “Methods for the treatment of endometriosis” (Miscon Trading S.A., priority 2003, dated 2016)

Test system: endometriosis
Assay: Intralesional administration of progesterone in women with endometriosis (case reports)
Type: in vivo, human
Settings: person, 1 g intracystic and 1 g in each bladder nodule, follow up over 12 months
Experimental: They were regularly monitored by pain scores (visual analog), direct questionnaire, and ultrasound examination. […] Aspiration of the endometrioma and intracystic instillation of 1 g of progesterone was performed. Cystoscopy was carried out and 1 g of progesterone was instilled in each of the nodules in the bladder.

What does the source list for `CC(=O)[C@H]1CC[C@H]2[C@@H]3CCC4=CC(=O)CC[C@]4(C)[C@H]3CC[C@]12C` [progesterone]?
symptoms on follow up (ovarian endometrioma and bladder wall nodules): remained symptom free; quality of life with regard to pelvic pain and urinary symptoms: good
